According to publication PMC11851430, “Workflow for E3 Ligase Ligand Validation for PROTAC Development” (ACS Chemical Biology, 2025):

Assays:
Test in all cases: DSF assay
Type in all cases: binding
Conditions in all cases: 20 µM compound
BMP2KA = target: T1, BMP2KA (Homo sapiens, UniProt Q9NSY1)
T1 construct: purchased in-house DSF panel (SGC-style construct names; the trailing A/B is a construct suffix)
Method: (§1) Excitation and emission filters […]
(§2) curve. […] Measurements were
(§3) Kinobeads selectivity profiling of PROTACs
(§4) (Multiplexion, Heidelberg, Germany).
(§5) The cell lysate was ultracentrifuged and diluted
(§6) NaF, 1 mM DTT, protease inhibitors and phosphatase inhibitors to a final concentration of 5 mg/ml as determined by Bradford assay. For selectivity profiling of compounds the cell lysate (2.5 mg of total proteins per pulldown) was pre-incubated with increasing compound […]
(§7) µM) for 45 min at 4 °C in an end-over-end shaker. Subsequently, lysates were incubated with Kinobeads epsilon (17 µL settled beads) for 30 min at 4 °C. To assess the degree of protein depletion from the lysates by Kinobeads, the flow-through of the DMSO control was recovered

BMPR2A = target: T2, BMPR2A (Homo sapiens, UniProt Q13873)
T2 construct: purchased in-house DSF panel (SGC-style construct names; the trailing A/B is a construct suffix)
T2 sequence (Q13873 27-1038): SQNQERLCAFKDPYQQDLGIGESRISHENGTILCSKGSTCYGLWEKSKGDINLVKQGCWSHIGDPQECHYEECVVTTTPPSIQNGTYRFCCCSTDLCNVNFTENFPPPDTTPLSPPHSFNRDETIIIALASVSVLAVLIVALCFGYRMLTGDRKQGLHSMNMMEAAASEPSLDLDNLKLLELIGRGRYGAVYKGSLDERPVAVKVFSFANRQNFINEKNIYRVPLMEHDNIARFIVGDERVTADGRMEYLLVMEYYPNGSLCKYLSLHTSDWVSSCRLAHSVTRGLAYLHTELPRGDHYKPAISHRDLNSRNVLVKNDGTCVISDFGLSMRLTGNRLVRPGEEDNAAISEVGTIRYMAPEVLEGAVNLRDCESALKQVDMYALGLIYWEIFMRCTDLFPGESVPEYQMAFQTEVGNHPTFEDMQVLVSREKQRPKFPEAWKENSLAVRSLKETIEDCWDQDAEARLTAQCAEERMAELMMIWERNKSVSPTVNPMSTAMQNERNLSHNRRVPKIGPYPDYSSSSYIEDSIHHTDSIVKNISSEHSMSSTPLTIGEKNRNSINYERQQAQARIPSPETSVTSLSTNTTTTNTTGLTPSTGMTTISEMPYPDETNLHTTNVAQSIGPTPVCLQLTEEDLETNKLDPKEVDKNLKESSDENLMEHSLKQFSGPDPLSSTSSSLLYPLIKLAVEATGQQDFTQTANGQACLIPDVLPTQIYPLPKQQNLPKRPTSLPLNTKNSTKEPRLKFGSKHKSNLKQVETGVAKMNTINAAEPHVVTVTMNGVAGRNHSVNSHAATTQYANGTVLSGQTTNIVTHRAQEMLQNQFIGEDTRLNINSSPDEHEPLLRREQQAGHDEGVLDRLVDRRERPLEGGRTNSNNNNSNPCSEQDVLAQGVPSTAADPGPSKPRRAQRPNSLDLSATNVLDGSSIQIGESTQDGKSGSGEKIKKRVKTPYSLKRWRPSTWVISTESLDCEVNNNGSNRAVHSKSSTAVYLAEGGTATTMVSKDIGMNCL
Method: as §1, §2, §3, §4, §5, §6, §7

BRD4 = target: T3, BRD4 (Homo sapiens, UniProt O60885)
T3 construct: purchased in-house DSF panel (SGC-style construct names; the trailing A/B is a construct suffix)
Method: as §1, §2, §3, §4, §5, §6, §7

CAMK2DA = target: T4, CAMK2DA (Homo sapiens, UniProt Q13557)
T4 construct: purchased in-house DSF panel (SGC-style construct names; the trailing A/B is a construct suffix)
T4 sequence (Q13557 11-309): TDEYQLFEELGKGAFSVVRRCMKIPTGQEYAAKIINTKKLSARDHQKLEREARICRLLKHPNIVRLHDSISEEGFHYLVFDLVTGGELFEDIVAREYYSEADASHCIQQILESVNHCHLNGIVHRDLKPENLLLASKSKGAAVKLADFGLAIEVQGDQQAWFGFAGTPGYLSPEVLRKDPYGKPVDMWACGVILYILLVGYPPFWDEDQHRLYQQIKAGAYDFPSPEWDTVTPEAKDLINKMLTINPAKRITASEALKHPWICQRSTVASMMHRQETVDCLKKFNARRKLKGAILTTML
Method: as §1, §2, §3, §4, §5, §6, §7

CDC42BPAA = tested on: CDC42BPAA
Method: as §1, §2, §3, §4, §5, §6, §7

CLK3A = target: T5, CLK3A (Homo sapiens, UniProt P49761)
T5 construct: purchased in-house DSF panel (SGC-style construct names; the trailing A/B is a construct suffix)
T5 sequence (P49761 127-484): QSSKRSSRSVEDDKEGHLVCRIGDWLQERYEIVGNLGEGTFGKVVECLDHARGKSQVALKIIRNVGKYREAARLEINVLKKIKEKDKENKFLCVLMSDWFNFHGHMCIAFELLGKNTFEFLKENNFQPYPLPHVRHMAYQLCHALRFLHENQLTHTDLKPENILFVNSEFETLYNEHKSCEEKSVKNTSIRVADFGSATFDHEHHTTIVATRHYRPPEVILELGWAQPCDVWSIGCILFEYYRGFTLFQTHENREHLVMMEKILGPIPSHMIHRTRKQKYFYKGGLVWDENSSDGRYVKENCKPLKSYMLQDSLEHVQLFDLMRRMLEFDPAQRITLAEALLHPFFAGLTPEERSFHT
Method: as §1, §2, §3, §4, §5, §6, §7

CSNK1DA = target: T6, CSNK1DA (Homo sapiens, UniProt P48730)
T6 construct: purchased in-house DSF panel (SGC-style construct names; the trailing A/B is a construct suffix)
T6 sequence (P48730 1-294): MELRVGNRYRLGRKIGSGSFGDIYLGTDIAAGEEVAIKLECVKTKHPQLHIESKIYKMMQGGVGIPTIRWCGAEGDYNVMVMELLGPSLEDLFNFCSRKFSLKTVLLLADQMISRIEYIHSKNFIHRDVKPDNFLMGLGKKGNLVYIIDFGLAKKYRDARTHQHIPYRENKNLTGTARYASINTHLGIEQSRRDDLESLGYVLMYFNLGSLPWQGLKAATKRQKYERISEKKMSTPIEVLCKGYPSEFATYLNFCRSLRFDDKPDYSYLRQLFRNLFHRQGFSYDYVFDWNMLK
Method: as §1, §2, §3, §4, §5, §6, §7

DAPK3A = target: T7, DAPK3A (Homo sapiens, UniProt O43293)
T7 construct: purchased in-house DSF panel (SGC-style construct names; the trailing A/B is a construct suffix)
T7 sequence (O43293 9-289): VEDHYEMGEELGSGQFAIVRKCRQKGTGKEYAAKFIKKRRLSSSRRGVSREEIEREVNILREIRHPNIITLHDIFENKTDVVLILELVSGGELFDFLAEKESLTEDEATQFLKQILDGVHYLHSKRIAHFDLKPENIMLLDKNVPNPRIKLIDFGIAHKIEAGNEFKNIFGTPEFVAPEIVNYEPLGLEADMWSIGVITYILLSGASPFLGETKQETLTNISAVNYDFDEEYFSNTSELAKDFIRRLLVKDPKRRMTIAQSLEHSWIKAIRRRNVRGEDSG
Method: as §1, §2, §3, §4, §5, §6, §7

MAPK8B = target: T8, MAPK8B (Homo sapiens, UniProt P45983)
T8 construct: purchased in-house DSF panel (SGC-style construct names; the trailing A/B is a construct suffix)
T8 sequence (P45983 1-364): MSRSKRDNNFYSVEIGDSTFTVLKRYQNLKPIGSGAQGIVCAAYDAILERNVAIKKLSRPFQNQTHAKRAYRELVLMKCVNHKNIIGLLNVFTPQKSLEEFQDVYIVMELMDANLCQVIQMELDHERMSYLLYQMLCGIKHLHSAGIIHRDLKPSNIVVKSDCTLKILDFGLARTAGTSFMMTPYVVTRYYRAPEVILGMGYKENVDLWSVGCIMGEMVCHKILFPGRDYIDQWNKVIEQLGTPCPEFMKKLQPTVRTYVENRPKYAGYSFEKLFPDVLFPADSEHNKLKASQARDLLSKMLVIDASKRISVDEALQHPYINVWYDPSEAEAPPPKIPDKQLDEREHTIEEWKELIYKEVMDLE
Method: as §1, §2, §3, §4, §5, §6, §7

MAPK9A = target: T9, MAPK9A (Homo sapiens, UniProt P45984)
T9 construct: purchased in-house DSF panel (SGC-style construct names; the trailing A/B is a construct suffix)
T9 sequence (P45984 1-364): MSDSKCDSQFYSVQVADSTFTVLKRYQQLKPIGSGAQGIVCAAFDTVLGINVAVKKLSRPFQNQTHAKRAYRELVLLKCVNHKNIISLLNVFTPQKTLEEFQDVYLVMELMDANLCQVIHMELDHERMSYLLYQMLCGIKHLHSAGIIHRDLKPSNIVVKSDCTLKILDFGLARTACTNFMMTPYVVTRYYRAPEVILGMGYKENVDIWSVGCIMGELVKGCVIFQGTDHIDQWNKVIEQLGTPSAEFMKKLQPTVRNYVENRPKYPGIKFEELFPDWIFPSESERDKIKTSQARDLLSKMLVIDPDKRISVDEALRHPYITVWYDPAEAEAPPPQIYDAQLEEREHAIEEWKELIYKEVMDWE
Method: as §1, §2, §3, §4, §5, §6, §7

MST4A = target: T10, MST4A (Homo sapiens, UniProt Q9P289)
T10 construct: purchased in-house DSF panel (SGC-style construct names; the trailing A/B is a construct suffix)
T10 sequence (Q9P289 1-300): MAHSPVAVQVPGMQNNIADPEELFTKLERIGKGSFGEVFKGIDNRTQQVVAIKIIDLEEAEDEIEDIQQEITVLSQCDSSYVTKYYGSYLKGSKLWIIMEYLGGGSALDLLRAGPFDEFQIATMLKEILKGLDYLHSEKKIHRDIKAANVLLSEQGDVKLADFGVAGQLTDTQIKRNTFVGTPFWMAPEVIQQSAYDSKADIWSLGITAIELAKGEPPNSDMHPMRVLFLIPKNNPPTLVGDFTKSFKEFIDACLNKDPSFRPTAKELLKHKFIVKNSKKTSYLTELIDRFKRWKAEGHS
Method: as §1, §2, §3, §4, §5, §6, §7

NEK2A = target: T11, NEK2A (Homo sapiens, UniProt P51955)
T11 construct: purchased in-house DSF panel (SGC-style construct names; the trailing A/B is a construct suffix)
T11 sequence (P51955 1-271): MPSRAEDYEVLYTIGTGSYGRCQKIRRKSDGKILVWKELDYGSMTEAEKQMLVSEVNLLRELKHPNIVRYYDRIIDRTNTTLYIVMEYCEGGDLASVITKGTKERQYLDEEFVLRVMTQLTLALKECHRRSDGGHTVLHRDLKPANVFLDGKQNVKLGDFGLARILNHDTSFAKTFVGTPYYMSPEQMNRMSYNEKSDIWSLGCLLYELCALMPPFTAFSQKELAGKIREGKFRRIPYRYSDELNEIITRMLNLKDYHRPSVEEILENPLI
Method: as §1, §2, §3, §4, §5, §6, §7

PIM1A = target: T12, PIM1A (Homo sapiens, UniProt P11309)
T12 construct: purchased in-house DSF panel (SGC-style construct names; the trailing A/B is a construct suffix)
T12 sequence (P11309 whole entry): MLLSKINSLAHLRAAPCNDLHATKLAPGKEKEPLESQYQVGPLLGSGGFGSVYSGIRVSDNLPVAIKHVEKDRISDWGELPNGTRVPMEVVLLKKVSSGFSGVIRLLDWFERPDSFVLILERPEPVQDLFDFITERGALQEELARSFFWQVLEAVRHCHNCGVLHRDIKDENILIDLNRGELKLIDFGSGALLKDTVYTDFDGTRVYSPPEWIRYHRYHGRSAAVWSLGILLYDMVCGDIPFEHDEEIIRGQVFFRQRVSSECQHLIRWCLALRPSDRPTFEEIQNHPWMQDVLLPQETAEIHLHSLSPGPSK
Method: as §1, §2, §3, §4, §5, §6, §7

PKMYT1A = target: T13, PKMYT1A (Homo sapiens, UniProt Q99640)
T13 construct: purchased in-house DSF panel (SGC-style construct names; the trailing A/B is a construct suffix)
T13 sequence (Q99640 75-362): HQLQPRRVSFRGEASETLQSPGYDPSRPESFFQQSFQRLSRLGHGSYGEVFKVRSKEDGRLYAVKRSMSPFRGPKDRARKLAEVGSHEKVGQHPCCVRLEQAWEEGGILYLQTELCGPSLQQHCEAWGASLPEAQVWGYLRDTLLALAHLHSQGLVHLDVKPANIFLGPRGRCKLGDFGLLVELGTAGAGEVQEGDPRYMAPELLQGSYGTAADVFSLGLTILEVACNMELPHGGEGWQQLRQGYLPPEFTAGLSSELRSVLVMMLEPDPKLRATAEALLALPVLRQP
Method: as §1, §2, §3, §4, §5, §6, §7

RPS6KA1A = tested on: RPS6KA1A
Method: as §1, §2, §3, §4, §5, §6, §7

SRPK1 = target: T14, SRPK1 (Homo sapiens, UniProt Q96SB4)
T14 construct: purchased in-house DSF panel (SGC-style construct names; the trailing A/B is a construct suffix)
T14 sequence (Q96SB4 whole entry): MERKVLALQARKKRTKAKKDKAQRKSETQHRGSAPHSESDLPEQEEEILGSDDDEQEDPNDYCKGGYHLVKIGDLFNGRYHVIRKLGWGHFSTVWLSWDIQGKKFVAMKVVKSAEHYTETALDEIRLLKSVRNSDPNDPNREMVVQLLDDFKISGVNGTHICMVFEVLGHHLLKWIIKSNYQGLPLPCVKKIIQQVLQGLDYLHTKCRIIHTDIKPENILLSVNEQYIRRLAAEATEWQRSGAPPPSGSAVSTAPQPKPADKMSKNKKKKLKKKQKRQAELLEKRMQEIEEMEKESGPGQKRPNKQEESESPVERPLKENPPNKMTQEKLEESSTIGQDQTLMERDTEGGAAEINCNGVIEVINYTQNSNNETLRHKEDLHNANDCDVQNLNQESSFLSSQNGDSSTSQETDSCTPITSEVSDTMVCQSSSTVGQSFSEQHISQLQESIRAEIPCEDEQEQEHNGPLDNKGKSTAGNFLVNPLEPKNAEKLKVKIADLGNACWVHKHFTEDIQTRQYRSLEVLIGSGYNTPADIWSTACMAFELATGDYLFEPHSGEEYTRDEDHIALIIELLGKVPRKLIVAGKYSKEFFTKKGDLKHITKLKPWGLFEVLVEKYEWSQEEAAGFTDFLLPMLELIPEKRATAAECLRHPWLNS
Method: as §1, §2, §3, §4, §5, §6, §7

T1 sequence (Q9NSY1 38-345): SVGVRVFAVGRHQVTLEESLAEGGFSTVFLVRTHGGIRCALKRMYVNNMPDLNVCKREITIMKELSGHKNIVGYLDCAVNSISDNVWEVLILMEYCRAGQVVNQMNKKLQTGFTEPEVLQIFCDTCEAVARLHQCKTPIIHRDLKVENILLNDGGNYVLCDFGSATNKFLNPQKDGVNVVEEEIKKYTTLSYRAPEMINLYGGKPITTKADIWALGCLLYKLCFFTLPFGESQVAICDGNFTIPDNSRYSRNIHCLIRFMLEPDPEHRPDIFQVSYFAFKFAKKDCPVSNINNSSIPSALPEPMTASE

SMILES | ΔTm at 20 µM (BMP2KA) | ΔTm at 20 µM (BMPR2A) | ΔTm at 20 µM (BRD4) | ΔTm at 20 µM (CAMK2DA) | ΔTm (CDC42BPAA) | ΔTm at 20 µM (CLK3A) | ΔTm at 20 µM (CSNK1DA) | ΔTm at 20 µM (DAPK3A) | ΔTm at 20 µM (MAPK8B) | ΔTm at 20 µM (MAPK9A) | ΔTm at 20 µM (MST4A) | ΔTm at 20 µM (NEK2A) | ΔTm at 20 µM (PIM1A) | ΔTm at 20 µM (PKMYT1A) | ΔTm (RPS6KA1A) | ΔTm at 20 µM (SRPK1)
CCOC(=O)c1cc(Nc2cc(C3CC3)[nH]n2)nc(Nc2ccc(CC#N)cc2)n1 [compound 5] | 18 °C | 7.28 °C | 1.16 °C | 3.37 °C | -2.55 °C | 9.57 °C | 2.62 °C | 10.6 °C | 4.31 °C | 2.84 °C | 5.53 °C | 2.25 °C | -0.9 °C | -1.04 °C | 1.55 °C | 4.31 °C
CC(C)(C)OC(=O)NCCCOCCOCCOCCCNC(=O)c1cc(Nc2cc(C3CC3)[nH]n2)nc(Nc2ccc(CC#N)cc2)n1 [5-L] | 17.7 °C | 7.29 °C | -0.79 °C | 3.75 °C | -3.72 °C | 9.33 °C | 5.43 °C | 7.97 °C | 6.48 °C | 4.61 °C | 4.64 °C | 0.77 °C | -1.48 °C | -0.12 °C | 1.85 °C | 2.8 °C
CC(C)(C)OC(=O)NCCOCCOCCOCCOCCC(=O)N1CCN(c2cc(Nc3cc(C4CC4)[nH]n3)nc(Nc3ccc(CC#N)cc3)n2)CC1 [4-L] | 21.5 °C | 9.02 °C | 0.18 °C | 2.15 °C | -2.71 °C | 6.42 °C | 3.01 °C | 7.59 °C | 6.93 °C | 4.27 °C | 9.01 °C | 2.97 °C | -0.76 °C | -2.93 °C | 0.76 °C | 0.76 °C
